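96-well plates; 48 h exposure; 5 concentrations. Endpoints by linear interpolation between flanking doses. Not reached: highest tested concentration assigned. Abbreviation: GI50, concentration required for 50% inhibition of growth. TGI: total growth inhibition.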
Tests used:
Test in all cases: DTP human tumour cell line panel, 48 h
[1] = tested on: A498 renal
[2] = tested on: A549 NSCLC
[3] = tested on: ACHN renal
[4] = tested on: BT-549 breast
[5] = tested on: CAKI-1 renal
[6] = tested on: CCRF-CEM leukemia
[7] = tested on: COLO 205 colon
[8] = tested on: DU-145 prostate
[9] = tested on: HCC-2998 colon
[10] = tested on: HCT-116 colon
[11] = tested on: HCT-15 colon
[12] = tested on: HL-60(TB) leukemia
[13] = tested on: HOP-62 NSCLC
[14] = tested on: HOP-92 NSCLC
[15] = tested on: HS 578T breast
[16] = tested on: HT29 colon
[17] = tested on: IGROV1 ovarian
[18] = tested on: K-562 leukemia
[19] = tested on: KM12 colon
[20] = tested on: LOX IMVI melanoma
[21] = tested on: M14 melanoma
[22] = tested on: MALME-3M melanoma
[23] = tested on: MCF7 breast
[24] = tested on: MDA-MB-231 breast
[25] = tested on: MDA-MB-435
[26] = tested on: MOLT-4 leukemia
[27] = tested on: NCI-H226 lung
[28] = tested on: NCI-H23 lung

Cc1ccc2c(n1)C(=O)C(Cl)=C(Nc1ccc(C)c(C)c1)C2=O showed a GI50 [1] of 10.6 µM, a TGI [1] of 25.3 µM and a GI50 [2] of 3.37 µM. It also gave a TGI [2] of 17.3 µM, a GI50 [3] of 1.68 µM and a TGI [3] of 3.13 µM. The GI50 [4] was 1.41 µM, the TGI [4] was 2.79 µM and the GI50 [5] was 1.59 µM. It also gave a TGI [5] of 3.16 µM, a GI50 [6] of 2.46 µM and a TGI [6] of 6.72 µM. The GI50 [7] was 17.2 µM, the TGI [7] was 44.3 µM and the GI50 [8] was 1.72 µM. For the same compound, the TGI [8] was 3.42 µM, the GI50 [9] was 2.12 µM and the TGI [9] was 4.69 µM. For the same compound, the GI50 [10] was 1.15 µM, the TGI [10] was 2.64 µM and the GI50 [11] was 1.12 µM. It also gave a TGI [11] of 2.88 µM, a GI50 [12] of 2.27 µM and a TGI [12] of 5.7 µM. The GI50 [13] was 2.49 µM, the TGI [13] was 11.2 µM and the GI50 [14] was 1.98 µM. For the same compound, the TGI [14] was 4.1 µM, the GI50 [15] was 2.26 µM and the TGI [15] was 6.47 µM. It also gave a GI50 [16] of 24.7 µM, a TGI [16] greater than 100 µM and a GI50 [17] of 1.85 µM. For the same compound, the TGI [17] was 4.1 µM, the GI50 [18] was 2.04 µM and the TGI [18] was greater than 100 µM. It also gave a GI50 [19] of 2.96 µM, a TGI [19] greater than 100 µM and a GI50 [20] of 0.726 µM. It also gave a TGI [20] of 3.42 µM, a GI50 [21] of 1.46 µM and a TGI [21] of 2.96 µM. It also gave a GI50 [22] of 2.13 µM, a TGI [22] of 4.22 µM and a GI50 [23] of 1.01 µM. It also gave a TGI [23] of 2.91 µM, a GI50 [24] of 1.62 µM and a TGI [24] of 3.81 µM. It also gave a GI50 [25] of 1.8 µM, a TGI [25] of 3.76 µM and a GI50 [26] of 1.92 µM. For the same compound, the TGI [26] was 6.59 µM, the GI50 [27] was 1.72 µM and the TGI [27] was 5.92 µM. For the same compound, the GI50 [28] was 1.2 µM and the TGI [28] was 3.95 µM.

Source: PubChem BioAssay (NCI)
